Test results as given in patent US8664209B2, “Daptomycin for multiple sclerosis” (priority 2009, dated 2014).
Like-named read-outs stand apart in the source and are kept apart here.

Columns and labels:
Assay type in all cases: in vivo, human
[1] = system: person with multiple sclerosis with almost weekly relapses; assay: Patient B case: daptomycin for relapses (Example 2); settings: for ambulation: acute relapse (nonambulatory)
Excerpt: This is described in more detail in Example 2. Patient B is a person who was first diagnosed with multiple sclerosis in 1981. The course of their illness was characterized through the years by increasingly frequent relapses and progressive disability. They had initially been treated with azathioprine and, subsequently with interferons, including Betaseron™ and Avonex®, and Copaxone®. As adjunct treatments, they received innumerable courses of intravenous methylprednisolone, as well as cyclophosphamide, since 2005. In addition, they have also received mycophenylate mofetil, plasma exchange monthly, intravenous immunoglobulin monthly, natalizumab, daclizumab and rituximab. None of these regimens adequately controlled their many relapses, which were characterized by worsening gait and appendicular ataxia, weakness in their limbs, vertigo and diplopia and severe migraine headaches. In late 2008 and 2009, they were hospitalized seven times for relapses. Since 2005, they had received more than 50 courses of steroid and/or cyclophosphamide treatments for relapses not requiring hospitalization. These treatments would induce partial and short lasting remissions. During 2009, they were having relapses on a weekly basis. During remissions, they were able to walk only with a walker. Daptomycin 4 mg/kg intravenously [hereinafter “IV”] was administered to patient B for five days for an acute relapse which made the patient nonambulatory. […] They did have an allergic reaction with chest tightness and blistering at the injection site that was determined to be caused by the tape securing their IV catheter. […] Daptomycin 4 mg/kg/IV was administered for five additional days with pretreatment with solumedrol in the total amount of 100 mg IV and diphenhydramine in the total amount of 50 mg IV with improvement. Daptomycin was then ordered 4 mg/kg/IV once a week. Three days after their first weekly dose, they began to feel more off balanced and their headache became more severe. Daptomycin orders were revised to 4 mg/kg IV once a week in co-administration with solumedrol 1 gram IV.

[2] = system: person with secondary progressive multiple sclerosis (SPMS); assay: Patient A case: daptomycin given for MRSA infection (Examples 1, 3); settings: for muscle and nerve pain, muscle stiffness: patient-reported
Excerpt: The novel use of daptomycin in the treatment and/or prevention of multiple sclerosis in mammals, particularly human, is based on the recent observation of a patient (Patient A) with multiple sclerosis whose progressive neurological disability stabilized after treatment with daptomycin for skin infections caused by methicillin resistant Staphalococcus aureus. Previously, their neurological disability had progressed despite treatment with standard FDA approved therapies as well as investigational therapies, some of which they developed severe allergic reactions to. […] More detail about Patient A is provided in Example 3. Patient A is a person who has suffered from multiple sclerosis. Their disease started with left arm and leg weakness. During the early course of the disease, they experienced frequent relapses. Progressive relapsing continued, with increasing lower extremity weakness. The patient characterized their left arm as feeling like dead weight. Patient A developed diverticulitis in 2006. Their EDSS (Expanded Disability Status Scale) was 5.5 in February, 2007, i.e., patient was able to walk 100 meters without aid or rest; their EDSS was 6.0 by the end of the year, i.e., patient required intermittent or constant assistance with a cane, crutch or brace to walk 100 meters. Daptomycin therapy was initiated to treat a MRSA infection after Patient A had knee surgery. They received a daptomycin dose of 100 mg for four weeks. Three months later, they had re-treatment with 500 mg daily for about four weeks.

[3] = system: patients with progressive and relapsing forms of multiple sclerosis
Method: Seventeen patients with relapsing remitting (4 patients) and chronic progressive multiple sclerosis […] have received daptomycin therapy at 4 mg/kg IV for periods ranging from five to 21 days. This patient group included Patient A and Patient B from the above examples.
Four out of seventeen patients have received daptomycin for acute relapses, after not responding to, or wishing to be taken of, solumedrol therapy.
Thirteen patients with chronic progressive multiple sclerosis received daptomycin therapy for symptoms of multiple sclerosis that were progressing, or to improve present symptoms. […] In all chronic progressive patients who report responses to the drug, maintenance doses starting with once a week with or without the addition of intravenous corticosteroids are given. Doses of daptomycin 2 mg/kg are given to patients who report fatigue as a significant side effect.
Overall, in the same study, daptomycin was administered to a total of 30 patients. 14 responded to treatment (47%).
Daptomycin was administered as a daily IV infusion at 3 mg/kg, 4 mg/kg or 6 mg/kg as per standard guidelines for 5 to 21 days, then as a maintenance dose of 3 mg/kg, 4 mg/kg or 6 mg/kg once every one to four weeks. Patients were monitored by telephone calls. CPK levels were done as clinically indicated. Patients were selected on the basis of failure or intolerance on other treatments and continued disease activity.

[4] = Patient A, listed as daptomycin
[5] = RPMS (relapsing progressive MS)
[6] = patient thirteen, SPMS, DD 4 yrs, EDSS pretx 4, 4 mg/kg/d × five days (relapse), status D (discontinued)
[7] = secondary progressive MS (SPMS)

- creatine phosphokinase level (CPK) ([3]; human, in vivo): 217
SMILES: CCCCCCCCCC(=O)N[C@@H](Cc1c[nH]c2ccccc12)C(=O)N[C@H](CC(N)=O)C(=O)N[C@@H](CC(=O)O)C(=O)N[C@@H]1C(=O)NCC(=O)N[C@@H](CCCN)C(=O)N[C@@H](CC(=O)O)C(=O)N[C@H](C)C(=O)N[C@@H](CC(=O)O)C(=O)NCC(=O)N[C@H](CO)C(=O)N[C@@H]([C@H](C)CC(=O)O)C(=O)N[C@@H](CC(=O)c2ccccc2N)C(=O)O[C@@H]1C [Daptomycin, N-decanoyl-L-trypotophyl-D-asparaginyl-L-aspartyl-L-threonylglycyl-L-ornithyl-L-aspartyl-D-alanyl-L-aspartylglycyl-D-seryl-threo-3-methyl-L-glutamyl-3-anthraniloyl-L-alanine ε1-lactone]
- ambulation ([1]; 4 mg/kg IV for five days, third day): able to walk with their walker
- ambulation ([1]; 4 mg/kg IV, after five days): able to take a few steps without their walker
- duration of stability after initial course ([1]; after initial 4 mg/kg IV for five days, then recurrence of ataxia and increased headaches, less severe): stable for approximately one week
- response of relapses ([1]; consecutive courses of daptomycin for three to five days): respond very rapidly
- frequency of relapses ([1]; daptomycin at regular intervals (4 mg/kg IV once a week with solumedrol 1 gram IV)): marked decrease in the frequency of their relapses
- frequency of relapses and neurological disability ([1]; intravenous daptomycin 4 mg/kg): stabilized both in terms of the frequency of their relapses and neurological disability
- left upper extremity strength, sensation, numbness ([2]; Patient A): numbness in their left arm was improved
- walking ([2]; Patient A, after the first daptomycin treatment (100 mg for four weeks)): slight improvement in walking
- gait / need of cane ([2]; Patient A, after the second treatment (500 mg daily about four weeks)): did not require their cane, but could walk unassisted
- progressive neurological disability ([2]; Patient A, after treatment with daptomycin for MRSA skin infections): stabilized
- walking ([2]; Patient A, during and after treatment): able to walk extended distances without their cane
- EDSS (Expanded Disability Status Scale) ([2]; Patient A, four weeks after discontinuing daptomycin, EDSS was 6.0 before, 100 mg for four weeks, re-treatment 500 mg daily about four weeks): 2.5
- muscle and nerve pain, muscle stiffness ([2]; Patient A): improvement in muscle pain and stiffness
- muscle and nerve pain, muscle stiffness [2, 4]: significant decrease in their muscle and nerve pain as well as muscle stiffness
- left upper extremity strength, sensation, numbness [2, 4]: increase in strength and sensation of their left upper extremity
- functional improvement ([2]; person with SPMS poorly responsive to other therapies): dramatic and sustained functional improvement
- subgroup response [3, 5]: 0%
- subgroup response (responders/treated) [3, 5]: 0/2
- patient-reported strength and sensation ([3]; four out of seventeen patients given daptomycin for acute relapses, 4 mg/kg IV): Three patients reported improvement in their strength and sensation
- hospitalizations ([3]; human, in vivo): Two patients were hospitalized for confusion and increased symptoms
- most common side effect during the course of therapy ([3]; human, in vivo): fatigue
- fatigue associated with therapy ([3]; human, in vivo, iv, 4 mg/kg): Three patients noted that daptomycin therapy was associated with significant fatigue
- EDSS (last) ([3]; patient eight, SPMS, DD 12 yrs, EDSS pretx 7, 4 mg/kg × one dose, status D (discontinued)): 7
- EDSS (last) ([3]; patient eighteen, SPMS, DD 5 yrs, EDSS pretx 6, 4 mg/kg × 5 days, then 4 mg/kg q week, status D (discontinued)): 6
- EDSS (last) ([3]; patient eleven, SPMS, DD 24 yrs, EDSS pretx 6.5, 4 mg/kg/day × 14 days (relapse), status D (discontinued)): 6.5
- EDSS (last) ([3]; patient fifteen, SPMS, DD 25 yrs, EDSS pretx 6.5, 4 mg/kg/d × 5 days (two courses), 4 mg/kg/week, status A (active)): 6.5
- EDSS (last) ([3]; patient five, RRMS, DD 7 yrs, EDSS pretx 2.5, 4 mg/kg/day × 5 days, status D (discontinued)): 2.5
- EDSS (last) ([3]; patient four, RRMS, DD 15 yrs, EDSS pretx 2.5, 4 mg/kg/d × 14 days, then 4 mg/kg/q 1-2 wks, status D (discontinued)): 2
- EDSS (last) ([3]; patient fourteen, SPMS, DD 9 yrs, EDSS pretx 6, 4 mg/kg × 5 days, then 4 mg/kg q 2 wks, status A (active)): 6
- EDSS (last) ([3]; patient nine, SPMS, DD 13 yrs, EDSS pretx 6.5, 4 mg/kg/d × 5 days, 4 mg/kg q 2 wks, status A (active)): 6.5
- EDSS (last) ([3]; patient nineteen, SPMS, DD 21 yrs, EDSS pretx 6.5, 4 mg/kg × 21 days. D/Ced p 2½ wks, status D (discontinued)): 6.5
- EDSS (last) ([3]; patient one, TMS, DD 12 yrs, EDSS pretx 6, 4 mg/kg × 21 days, status D (discontinued)): 6
- EDSS (last) ([3]; patient seven, RRMS, DD 6 yrs, EDSS pretx 3.5, 4 mg/kg/d × 14 days, status D (discontinued)): 3.5
- EDSS (last) ([3]; patient seventeen, RRMS, DD 7 yrs, EDSS pretx 0, 4 mg/kg/d × 3 days, then 4 mg/kg/week, status A (active)): 1
- EDSS (last) ([3]; patient six, RPMS, DD 12 yrs, EDSS pretx 6, 4 mg/kg/d × 3 days, then 4 mg/kg/week, status D (discontinued)): 6
- EDSS (last) ([3]; patient sixteen, PPMS, DD 18 yrs, EDSS pretx 8.5, 4 mg/kg/d × 15 days, the 4 mg/kg/week, status D (discontinued)): 8.5
- EDSS (last) ([3]; patient ten, RRMS, DD 15 yrs, EDSS pretx 3, 4 mg/kg/d × 16 days, 4 mg/kg/wk × 4, then 4 mg/kg/q o wk, status A (active)): 3
- EDSS (last) [3, 6]: 3.5
- Outcome [3, 6]: No benefit
- EDSS (last) ([3]; patient thirty, SPMS, DD 17 yrs, EDSS pretx 6, 4 mg/kg/d × 10 days, status D (discontinued)): 6
- EDSS (last) ([3]; patient three, RPMS, DD 18 yrs, EDSS pretx 6.5, 4 mg/kg/d × 5 days, status D (discontinued)): 6.5
- EDSS (last) ([3]; patient twelve, SPMS, DD 9 yrs, EDSS pretx 4, 4 mg/kg × 21 days, status D (discontinued)): 4
- EDSS (last) ([3]; patient twenty, SPMS, DD 16 yrs, EDSS pretx 6.5, 4 mg/kg/day × 21 days, then 4 mg/kg q 2 weeks, status A (active)): 6.5
- EDSS (last) ([3]; patient twenty-eight, SPMS, DD 15 yrs, EDSS pretx 6.5, 4 mg/kg/d × 10 days, then 4 mg/kg/wk, status A (active)): 6
- EDSS (last) ([3]; patient twenty-five, SPMS, DD 6 yrs, EDSS pretx 6.5, 4 mg/kg/d × 5 days, status D (discontinued)): 7
- EDSS (last) ([3]; patient twenty-four, SPMS, DD 15 yrs, EDSS pretx 6.5, 4 mg/kg/d × 10 days, then 4 mg/kg/wk, status A (active)): 6.5
- EDSS (last) ([3]; patient twenty-nine, SPMS, DD 16 yrs, EDSS pretx 6.5, 4 mg/kg × 21 days, then 4 mg/kg q 2 wks, status A (active)): 6.5
- EDSS (last) ([3]; patient twenty-one, SPMS, DD 11 yrs, EDSS pretx 5.5, 4 mg/kg/day × 21 days, 4 mg/kg q wk. 6 mg/kg/d times 14 days, status D (discontinued)): 6
- EDSS (last) ([3]; patient twenty-seven, SPMS, DD 10 yrs, EDSS pretx 6, 4 mg/kg/d × 5 days, 2 mg/kg q 2 wks, status A (active)): 6
- EDSS (last) ([3]; patient twenty-six, TMS, DD 23 yrs, EDSS pretx 4, 4 mg/kg/d × 14 days, status D (discontinued)): 4
- EDSS (last) ([3]; patient twenty-three, RRMS, DD 11 yrs, EDSS pretx 2, 4 mg/kg × 5 days (relapse). Repeated 3 mos later (relapse), status D (discontinued)): 2.5
- EDSS (last) ([3]; patient twenty-two, SPMS, DD 6 yrs, EDSS pretx 6.5, 4 mg/k/d × 5 days, status D (discontinued)): 6.5
- EDSS (last) ([3]; patient two, SPMS, DD 11 yrs, EDSS pretx 6, 500 mg IV × 5 weeks, 4 mg/kg × 4 wks, 4 mg/kg q wk, status A (active)): 2.5
- patients showing clinically significant improvement in symptoms of multiple sclerosis ([3]; patients with progressive and relapsing MS unresponsive to multiple therapies): 47%
- subgroup response ([3]; primary progressive MS (PPMS)): 0%
- subgroup response (responders/treated) ([3]; primary progressive MS (PPMS)): 0/1
- subgroup response ([3]; relapsing remitting MS (RRMS)): 50%
- subgroup response (responders/treated) ([3]; relapsing remitting MS (RRMS)): 3/6
- subgroup response [3, 7]: 47%
- subgroup response (responders/treated) [3, 7]: 9/19
- patient-reported strength ([3]; thirteen patients with chronic progressive multiple sclerosis, 4 mg/kg IV): Nine patients reported better strength
- patients who responded to treatment ([3]; total of 30 patients): 47%
- patients who responded to treatment (number) ([3]; total of 30 patients): 14
- subgroup response ([3]; transitional MS (TMS)): 100%
- subgroup response (responders/treated) ([3]; transitional MS (TMS)): 2/2
